Measurements as given in publication PMC7377239, “Cardiovascular Effects of Polychlorinated Biphenyls and Their Major Metabolites” (Environmental Health Perspectives, 2020).
Like-named read-outs stand apart in the source and are kept apart here.

System: iCell cardiomyocytes (human iPSC-derived cardiomyocytes)
Experiment: Intracellular Ca2+ flux / beating parameters in iCell cardiomyocytes (FLIPR tetra), 90 min or 24 h
Format: cell-based
Conditions: for activity at 0.01 µM / activity at 0.1 µM / activity at 1 µM / activity at 10 µM / activity at 100 µM: Homo sapiens, Cardiomyocyte, 0.00 µM = 100.00; for activity at 0.1 µM: 0.10 µM
Outline: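 PODs were defined as the concentration crossing one SD of the vehicle-control means (0.5% DMSO) on four-parameter logistic fits of Ca2+ trace metrics (peak height, frequency, peak-spacing CV, decay/rise ratio). Traces came from 100 s, 8 Hz FLIPR reads at 37 °C on calcium-dye-loaded iCell cardiomyocytes. Before reading, cells were treated for 90 min or 24 h from 5× chemical plates spanning 0.05–500 µM, in triplicate.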

[1] = 1.5 h, read-out: cm.amp.avg.90min
[2] = 1.5 h, read-out: cm.amp.cv.90min
[3] = 1.5 h, read-out: cm.decay.rise.90min
[4] = 1.5 h, read-out: cm.spacing.cv.90min
[5] = 24 h, read-out: cm.amp.avg.24hrs
[6] = 24 h, read-out: cm.amp.cv.24hrs
[7] = 24 h, read-out: cm.decay.rise.24hrs
[8] = 24 h, read-out: cm.spacing.cv.24hrs

## Oc1cc(Cl)cc(-c2cccc(Cl)c2)c1 [5-OH PCB 11]
[1]
  activity at 0.01 µM: 101%
  activity at 0.1 µM: 102%
  activity at 1 µM: 104%
  activity at 10 µM: 94.2%
  activity at 100 µM: 0%
[2]
  activity at 0.01 µM: 105%
  activity at 0.1 µM: 103%
  activity at 1 µM: 101%
  activity at 10 µM: 105%
  activity at 100 µM: 0%
1.5 h, read-out: cm.bpm.90min
  activity at 0.01 µM: 97.8%
  activity at 0.1 µM: 100%
  activity at 1 µM: 102%
  activity at 10 µM: 137%
  activity at 100 µM: 0%
[3]
  activity at 0.01 µM: 102%
  activity at 0.1 µM: 98.1%
  activity at 1 µM: 98.3%
  activity at 10 µM: 92%
  activity at 100 µM: 0%
[4]
  activity at 0.01 µM: 101%
  activity at 0.1 µM: 107%
  activity at 1 µM: 99.1%
  activity at 10 µM: 106%
  activity at 100 µM: 0%
[5]
  activity at 0.01 µM: 128%
  activity at 0.1 µM: 123%
  activity at 1 µM: 151%
  activity at 10 µM: 126%
  activity at 100 µM: 0%
[6]
  activity at 0.01 µM: 95.9%
  activity at 0.1 µM: 81.7%
  activity at 1 µM: 71%
  activity at 10 µM: 83.9%
  activity at 100 µM: 0%
24 h, read-out: cm.bpm.24hrs
  activity at 0.01 µM: 104%
  activity at 0.1 µM: 97.4%
  activity at 1 µM: 91.7%
  activity at 10 µM: 114%
  activity at 100 µM: 0%
[7]
  activity at 0.01 µM: 94.3%
  activity at 0.1 µM: 98.8%
  activity at 1 µM: 100%
  activity at 10 µM: 104%
  activity at 100 µM: 0%
[8]
  activity at 0.01 µM: 112%
  activity at 0.1 µM: 113%
  activity at 1 µM: 89.5%
  activity at 10 µM: 101%
  activity at 100 µM: 0%

## Oc1cc(Cl)cc(-c2cccc(Cl)c2)c1 [5-OH-PCB 11]
iPSC-CM, 100 μM, because of loss of cell viability
  effect on Ca2+ flux: complete block of Ca^2+ flux
